Experimental data taken from US4233309A, “Novel 1-substituted-3-acylpyrrole derivatives, platelet aggregation inhibitors containing them, as active ingredients, and processes for production of said derivatives” (Teijin Limited, priority 1977, dated 1980).
Converted amounts (≈) assume the structure as drawn. Where two headings read alike, the source gives them in different places.

Assays:
[1] = tested on: platelet aggregation (guinea pig PRP, extra vivo); assay: Inhibitory effect of compounds on platelet aggregation in extra vivo (Table 4); design: species or system Hartley-strain guinea pigs; settings: Cavia porcellus, 100 mg/kg, route PS [sic], 1 h
Protocol: The effect of the compounds shown in Table 4 on platelet aggregation was assessed using guinea pig in extra vivo.
Each of the test compounds was dissolved in propylene glycol so that its concentration became 100 mg/ml (dosage corresponded to 100 mg/kg) and 30 mg/ml (dosage corresponded to 30 mg/kg). The drug solution was administered either orally or subcutaneously to Hartley-strain guinea pigs (3 per group) having a body weight of 300 to 350 g. As a control, propylene glycol was administered. One hour after the administration, citrated blood was taken out by cardiac puncture, and centrifuged to obtain PRP (see Example 67).
In the case of oral administration, the animals had been fasted overnight.
Into a quvett set in a holder of an aggregometer and prewarmed at 37° C. with stirring, was put 450 μl of the above PRP, and then 50 μl of an aggregating agent was added. The aggregation curve was recorded for an additional 3 minutes, and an increase in light transmittance through PRP after 3 minutes (TB) was recorded (see Example 67). As a control, an increase of transmittance of PRP taken from a guinea pig group administered with propylene glycol alone (TA) was recorded in the same way above. The percent inhibitions were calculated in accordance with the following equation. [formula]
As the aggregating agent, sodium arachidonate (a final concentraton of 0.03 mM) and a collagen suspension (a final concentration of 5 μg/ml) were used.
The percent inhibitions in the above table are averages of three guinea pigs. For details of the above extra vivo test about inhibition of platelet aggregation, the literature references described in Example 67 may be referred to.

[2] = tested on: biosynthesis of prostaglandins (microsomes of the seminal vesicle of bovine); assay: Inhibitory effect on prostaglandin biosynthesis in vitro (Table 3); format: biochemical; settings: 4 μg/ml sodium arachidonate, bioassay on rat fundus stomach strips
Protocol: Sprangue-Dawley rats (male, 180-200 g) were fasted overnight, and killed by blow on the head. The stomach was isolated, and fundus stomach strips were prepared. The smooth muscle strips were perfused with Krebs-Hensleit solution (gassed with 95% O2 +5% CO2 gas) of 37° C. at a rate of […]. The Krebs-Hensleit solution contained 0.1 μg/ml of atropine, 0.1 μg/ml of phenoxybenzamine, 3 μg/ml of propranolol, 0.1 μg/ml of tripelennamine, and 0.2 μg/ml of methylsergide to prevent the effect of smooth muscle contracting substances, and 1 μg/ml of indomethacine to inhibit the biosynthesis of prostaglandin by the smooth muscles. Then, 150 μl of a reaction solution containing biologically synthesized prostaglandin was added to the perfusion solution, and the amount of the biologically synthesized prostaglandin was measured from the contraction of the smooth muscles. The contraction of the smooth muscles was recorded on a recorder using an isotonic transducer.
The reaction solution containing biologically synthesized prostaglandin was prepared in the following manner.
To 0.4 mg/ml of microsomes of the seminal vesicle of bovine were added 5 mM of L-tryptophan, 0.025 μM of bovine hemoglobin and 3 mμ of glutathione as cofactors. The mixture was incubated together with each of the test compounds shown in Table 4 at 37° C. for 2 minutes, and immediately then, 4 μg/ml of sodium arachidonate was added. The mixture was further incubated at 37° C. for 10 minutes, and immediately then, the prostaglandin activity of the reaction solution was measured by bioassay.
The microsomes of the seminal vesicle of bovine had been prepared by suspending microsomes of the seminal vesicle of bovine (a product of Miles Laboratories, Inc.) in a 50 mM Tris.HCl buffer (pH 7.4) using a glass homogenizer, and stored in ice water prior to use.
ID50 denotes the concentration of each test compound required to inhibit the biosynthesis of prostaglandins by 50%.

[3] = tested on: platelet aggregation (platelet-rich plasmas (PRP) of guinea pigs); assay: Activity of inhibiting platelet aggregation in vitro, guinea pig PRP, sodium arachidonate as aggregating agent (Table 1); format: cell-based, Hartley-strain male guinea pigs; settings: Cavia porcellus, sodium arachidonate 0.03 mM final, 37° C., final concentration, read-out: IC50 (minimum concentration of drug which showed a percent inhibition of more than 50%)
Protocol: (§1) Some 1-substituted-3-acylpyrrole derivatives and other drugs were tested for platelet aggregation inhibiting activities in vitro using platelet-rich plasmas (PRP) of man and guinea pigs. The results are shown as minimum concentration of drugs which inhibit more than 50% of platelet aggregation induced by several aggregating agents.
(§2) In experiments with PRP of guinea pigs, sodium arachidonate (final concentration 0.03 mM) was used as an aggregating agent. In experiments with human PRP, sodium arachidonate (final concentration 0.1 mM), collagan suspension (final concentration 10 μg/ml), epinephrine solution (final concentration 20 μg/ml; for secondary aggregation), an epinephrine solution (final concentration 2 μg/ml; for primary aggregation) and ADP (final concentration 5 μM) were used as aggregating agents.
In an experiment with guinea pig PRP, citrated blood (containing 0.38% sodium citrate as a final concentration) was withdrawn by cardiac puncture from Hartley-strain male guinea pigs having a body weight of 350 to 600 g. The citrated blood was centrifuged at 1,000 rpm for 10 minutes at room temperature, and the supernatant platelet suspension (PRP) was separated.
The PRP was stored at room temperature, and used as soon as possible. Those which had been stored for more than 4 hours after preparation were not used.
(§3) For each test, a drug is dissolved in dimethylsulfoxide to a concentration of 10 mg/ml, and diluted with physiological saline to form 1 ml each of solutions having a concentration of 2500 μg/ml, 1000 μg/ml, 750 μg/ml, 500 μg/ml, 250 μg/ml and 100 μg/ml. A compound having a free carboxylic acid as a residue such as indomethacine and Ibprofen was dissolved in 0.1 M NaHCO3 to form a sodium salt solution having a concentration of 10 mg/ml. Then, the solution was diluted with physiological saline in the same way as above to form a test drug solution.
(§4) Arachidonic acid (99% pure, a product of Sigma Co., Ltd.) was dissolved in 0.1 M NaHCO3, and a 3.3 mM solution of sodium arachidonate was prepared. The solution was diluted with physiological saline to a concentration of 1 mM and used in the experiments. The 3.3 mM solution was stored in a refrigerator as a stock solution, and the 1 mM solution was newly prepared from the stock solution every time it was used.
(§5) Physiological saline (50 μl) and 50 μl of the aggregating agent solution were added to 400 μl of PRP which had been pre-warmed and stirred at 37° C. in a quvett set in a holder of an aggregometer. Platelet aggregation was thus initiated, and the change of light transmittance through a stirred platelet suspension was recorded for 3 minutes by a recorder joined to the aggregometer. An increase in transmittance after 3 minutes (T0) was used as a parameter of the rate of platelet aggregation in control experiments.
(§6) To 400 μl of PRP in a quvett was added 50 μl of a test drug solution. The mixture was pre-incubated and stirred for 2 minutes at 37° C. Then 50 μl of the aggregating agent was added to drug containing PRP and again aggregation responses were recorded as increases in light transmittance after 3 minutes (T1) in the same way as in (1) above. Percent inhibition was calculated from the formula [formula]
For the above in vitro test for the inhibition of platelet aggregation, reference may be had to H. M. Davis, J. Phyllis, K. Paul and W. Terry: Thromb. Res. 11, 217-226 (1977) and R. E. Anderson and J. G. Foulks: Thromb. Haemos. 36, 343-359 (1976).

carrageenan edema = assay: Antiinflammatory activity (carrageenan edema of rat paw, Table 5); format: in vivo, Sprangue-Dawley (SD) male rats; settings: 3 h after 1% carrageenan
Protocol: Sprangue-Dawley (SD) male rats with a body weight of 160 to 180 g, four in each group, were used. The volume of the left leg was measured, and each of the test compounds shown in Table 5 (100 mg/kg dissolved in polyethylene glycol so as to provide a volume of 2 ml/kg) was orally administered. One hour later, 0.1 ml of 1% carrageenan (dissolved in physiological saline) as an inflammation-inducing substance was subcutaneously injected to the paw of the left hind leg. A control group was orally administered with 2 ml/kg of polyethylene glycol. As a positive control, 25 mg/kg of Ibprofen was similarly administered. Three hours after the injection of 1% carrageenan, the volume of the left leg was measured, and the ratio of edema was calculated from the volume before the administration of the carrageenan. The percent inhibition of edema in comparison with the control group was determined.

[4] = tested on: platelet aggregation (human PRP); assay: Activity of inhibiting platelet aggregation in vitro, human PRP, several aggregating agents (Table 2); format: cell-based, human (healthy volunteers)
Protocol: as §1, §2
In the experiment using human PRP, heapinized blood (containing 20 IU/ml of heparin) was taken from the cubital vein of healthy volunteers, and centrifuged at 1,000 rpm at room temperature for 10 minutes. The supernatant platelet suspension (PRP) was separated.
as §3, §4
The collagen suspension (made by Hormon-Chemie, West Germany) was diluted with physiological saline to a concentraton of 100 μg/ml.
Epinephrine hydrogen tartarate was dissolved in physiological saline to form solutions having a concentration of 200 μg/ml (corresponding to a final concentration of 2 μg/ml).
Disodium salt of ADP was dissolved in a 0.1 M tris-hydrochloric acid buffer to form a 50 μM solution (corresponding to a final concentraton of 5 μM).
as §5
as §6, with “[formula] […]” for “[formula]”

[5] = collagen 5 μg/ml, read-out: Percent inhibition of platelet aggregation, collagen
[6] = sodium arachidonate 0.03 mM, read-out: Percent inhibition of platelet aggregation, sodium arachidonate

SMILES	inhibition at 100 mg/kg [1, 5]	inhibition at 100 mg/kg [1, 6]	ID50 (concentration required to inhibit the biosynthesis of prostaglandins by 50%) [2]	IC50 [3]	also measured
CC(=O)Oc1ccccc1C(=O)O [Acetylsalicylic acid, reference compound]	41%	77%	–	–	–
Cc1cc(C(=O)c2ccccc2)c(C)n1CCO [Compound 100, 2-(3-benzoyl-2,5-dimethylpyrrol-1-yl)-ethanol]	–	–	145.3 µg/mL	5 µg/mL (≈ 20.6 µM)	–
Cc1cc(C(=O)c2ccccc2)c(C)n1[C@@H](C)CO [Compound 108, (2S)-2-(3-benzoyl-2.5-dimethylpyrrol-1-yl)-2-methylethanol]	14%	62%	–	5 µg/mL (≈ 19.4 µM)	–
Cc1cc(C(=O)c2ccccc2)c(C)n1[C@H](C)CO [Compound 110, (2R)-2-(3-benzoyl-2,5-dimethylpyrrol-1-yl)-2-methylethanol]	90%	96%	–	1 µg/mL (≈ 3.89 µM)	–
COCC(C)n1c(C)cc(C(=O)c2ccccc2)c1C (stereo not shown) [Compound 206, 2-(3-benzoyl-2,5-dimethylpyrrol-1-yl)-2-methylethyl methyl ether]	97%	90%	18.4 µg/mL	2.5 µg/mL (≈ 9.21 µM)	Percent inhibition of edema (carrageenan edema; 100 mg/kg orally): 10%
COC(c1ccccc1)C(C)n1c(C)cc(C(=O)c2ccccc2)c1C (stereo not shown) [Compound 218, 2-(3-benzoyl-2,5-dimethylpyrrol-1-yl)-2-methyl-1-phenylethyl methyl ether]	–	–	–	5 µg/mL (≈ 14.4 µM)	–
COCCn1c(C)cc(C(=O)c2ccccc2C)c1C [Compound 238, 2-(3-o-methylbenzoyl-2,5-dimethylpyrrol-1-yl) ethyl methyl ether]	–	–	–	10 µg/mL (≈ 36.9 µM)	–
COCCn1c(C)cc(C(=O)c2cccs2)c1C [Compound 252, 2-[3-(2-thenoyl)-2,5-dimethylpyrrol-1-yl]-ethyl methyl ether]	–	–	–	2.5 µg/mL (≈ 9.49 µM)	–
CCCCC(=O)OCC(C)n1c(C)cc(C(=O)c2ccccc2)c1C (stereo not shown) [Compound 310, 2-(3-benzoyl-2,5-dimethylpyrrol-1-yl)-2-methylethyl valerate]	–	–	11.5 µg/mL	2.5 µg/mL (≈ 7.32 µM)	–
Cc1cc(C(=O)c2ccccc2)c(C)n1C(C)COC(=O)c1ccccc1 (stereo not shown) [Compound 314, 2-(3-benzoyl-2,5-dimethylpyrrol-1-yl)-2-methylethyl benzoate]	–	–	56.0 µg/mL	1 µg/mL (≈ 2.77 µM)	–
CC(=O)OC(c1ccccc1)C(C)n1c(C)cc(C(=O)c2ccccc2)c1C (stereo not shown) [Compound 328, 2-(3-benzoyl-2,5-dimethylpyrrol-1-yl)-2-methyl-1-phenylethyl acetate]	–	–	–	2.5 µg/mL	–
Cc1cc(C(=O)c2ccccc2)c(C)n1CCSc1ccccc1 [Compound 404, 2-(3-benzoyl-2,5-dimethylpyrrol-1-yl)ethyl phenyl sulfide]	–	–	–	2.5 µg/mL (≈ 7.45 µM)	–
CCOC(=O)C(C)n1c(C)cc(C(=O)c2ccccc2)c1C (stereo not shown) [Compound 706, ethyl 2-(3-benzoyl-2,5-dimethylpyrrol-1-yl) propionate]	–	–	20.0 µg/mL	1 µg/mL (≈ 3.34 µM)	–
Cc1cc(C(=O)c2ccccc2)c(C)n1C(C)C(N)=O (stereo not shown) [Compound 802, 2-(3-benzoyl-2,5-dimethylpyrrol-1-yl)propionamide]	40%	100%	–	5 µg/mL (≈ 18.5 µM)	–
CC(C)Cc1ccc(C(C)C(=O)O)cc1 (stereo not shown) [Ibprofen, reference compound]	–	–	–	–	Percent inhibition of edema (positive control) (carrageenan edema; 25 mg/kg): 51%
COc1ccc2c(c1)c(CC(=O)O)c(C)n2C(=O)c1ccc(Cl)cc1 [Indomethacine]	–	–	0.6 µg/mL	5 µg/mL (≈ 14 µM)	IC50 ([4]; ADP 5 μM, read-out: IC50, aggregation by ADP): 10 µg/mL (≈ 27.9 µM); IC50 ([4]; arachidonate 0.1 mM, read-out: IC50, aggregation by arachidonate): 1 µg/mL (≈ 2.79 µM); IC50 ([4]; collagen 10 μg/ml, read-out: IC50, aggregation by collagen): 10 µg/mL (≈ 27.9 µM); IC50 ([4]; epinephrine 2 μg/ml, primary aggregation, read-out: IC50, aggregation by epinephrine, primary): 10 µg/mL (≈ 27.9 µM); IC50 ([4]; epinephrine 20 μg/ml, secondary aggregation, read-out: IC50, aggregation by epinephrine, secondary): 1 µg/mL (≈ 2.79 µM)
